Test results published in US20250163036A1, “DIPEPTIDYL PEPTIDASE 1 INHIBITOR POLYMORPH, PREPARATION METHOD AND USE THEREFOR” (HAISCO PHARMACEUTICALS PTE. LTD., priority 2022, published 2025).

Experiments:
[1] = Pharmacokinetic test in rats; type: in vivo, SD rats; settings: rat, intragastric administration 3 mg/kg
Experimental: 1.1 Experimental animals: male SD rats, about 220 g, 6-8 weeks old, 6 rats/compound. Purchased from Chengdu Ddossy Experimental Animals Co., Ltd.
1.2 Experimental design: on the day of the experiment, 6 SD rats were randomly grouped according to their body weights. The animals were fasted with water available for 12 to 14 h one day before the administration and were fed 4 h after the administration.
Vehicle for intravenous administration: 5% DMA+5% Solutol+90% Saline; vehicle for intragastric administration: 0.5% MC; control compound INS1007, namely compound 2 in patent WO 2015110826A1, was prepared with reference to the method of the patent.
Before and after the administration, 0.1 ml of blood was taken from the orbit of the animals under isoflurane anesthesia and placed in an EDTAK2 centrifuge tube. The blood was centrifuged at 5000 rpm and 4° C. for 10 min to collect the plasma. Blood sampling time points for the intravenous administration group: 0, 5 min, 15 min, 30 min, 1 h, 2 h, 4 h, 6 h, 8 h, and 24 h; and blood sampling time points for the intragastric administration group: 0, 5 min, 15 min, 30 min, 1 h, 2 h, 4 h, 6 h, 8 h, and 24 h. Before analysis and detection, all samples were stored at −80° C.

[2] = Stability, accelerated experiment; type: physicochemical; settings: 40° C.±2° C., 75% RH±5% RH
Experimental: (§1) The compounds used in this experiment were obtained from Example 4. Examination conditions: 40° C.±2° C., 75% RH±5% RH. Packaging: the inner packaging material is a double-layer medicinal low-density polyethylene bag, and the outer packaging material is a polyester/aluminum/polyethylene medicinal composite bag. In particular, the analysis method of purity is as follows: [table]

[3] = Solid stability without protection (XRPD, UPLC); type: physicochemical
Experimental: For the compounds used in this experiment, the crystal form B was obtained from Example 3, and the crystal form C was obtained from Example 5
The crystal forms B and C were placed at 25° C./60% RH and 40° C./75% RH without any protection, and then the physical and chemical stabilities thereof were tested by XRPD and UPLC, respectively.

[4] = Hygroscopicity by dynamic vapor sorption (DVS); type: physicochemical; settings: 25° C./80% RH
Experimental: The hygroscopicity of the crystal forms B and C was evaluated by a dynamic vapor sorption (DVS) instrument. The test collected the percentage change in the mass of the samples when the humidity changed (60% RH-95% RH-0% RH-95% RH or 0% RH-95% RH-0% RH) at a constant temperature of 25° C., wherein for the crystal form C, the test started at ambient humidity (about 60% RH), and for the crystal form B, the test started at 0% relative humidity (0% RH). The test results are shown in FIGS. 12 and 13, respectively.

[5] = Stability, long-term experiment 3; type: physicochemical; settings: 2° C.-8° C.
Experimental: as §1, with “2° C.-8° C.” for “40° C.±2° C., 75% RH±5% RH.”

[6] = Stability, long-term experiment 1; type: physicochemical; settings: 25° C.±2° C., 60% RH±5% RH
Experimental: as §1, with “25°” for “40°”, “60%” for “75%”

[7] = Stability, long-term experiment 2; type: physicochemical; settings: 30° C.±2° C., 65% RH±5% RH
Experimental: as §1, with “30°” for “40°”, “65%” for “75%”

[8] = Variable-temperature / heating XRPD test; type: physicochemical
Experimental: (initial temperature). […] In order to study the TGA weight loss of the crystal form B, a variable-temperature XRPD test was performed. […] (some diffraction peaks shifted at 120° C., and it is speculated that the shift may be caused by lattice expansion at high temperature). Therefore, it is speculated that the free base crystal form B is an anhydrous crystal form.
(peak temperatures). The sample was heated to 120° C. and cooled to room temperature, and then an XRPD test was performed. […] Based on the fact of crystal transformation of the sample upon heating in combination with the stepwise weight loss of the TGA, it is speculated that the crystal form C is a monohydrate.

`Cn1c(=O)oc2ccc(-c3ccc(C[C@@H](C#N)NC(=O)[C@@H]4CNCCCO4)c(F)c3)cc21` [Compound I, (S)—N—((S)-1-cyano-2-(2-fluoro-4-(3-methyl-2-oxo-2,3-dihydrobenzo[d]oxazol-5-yl)phenyl)ethyl)-1,4-oxazepane-2-carboxamide] gave an F [1] of over 100%.
For `Cn1c(=O)oc2ccc(-c3ccc(C[C@@H](C#N)NC(=O)[C@@H]4CNCCCO4)c(F)c3)cc21` [Crystal form B], the Content ([2]; month 0) was 100.5%, the Crystal form ([2]; month 0) was “form B” and the Moisture ([2]; month 0) was 0.2%. For the same compound, the Purity ([2]; month 0) was 99.93%, the Content ([2]; month 1) was 100.4% and the Crystal form ([2]; month 1) was “form B”. It also gave a Moisture ([2]; month 1) of 0.3%, a Purity ([2]; month 1) of 99.87% and a Content ([2]; month 2) of 101.1%. For the same compound, the Crystal form ([2]; month 2) was “form B”, the Moisture ([2]; month 2) was 0.2% and the Purity ([2]; month 2) was 99.88%. For the same compound, the Content ([2]; month 3) was 100.1%, the Crystal form ([2]; month 3) was “form B” and the Moisture ([2]; month 3) was 0.2%. For the same compound, the Purity ([2]; month 3) was 99.87%, the Content ([2]; month 6) was 101.3% and the Crystal form ([2]; month 6) was “form B”. The Moisture ([2]; month 6) was 0.2%, the Purity ([2]; month 6) was 99.88% and the Crystal form change ([3]; 25° C./60% RH, 1 month) was “No”. For the same compound, the Purity ([3]; 25° C./60% RH, 1 month) was 99.76, the Crystal form change ([3]; 25° C./60% RH, 1 week) was “No” and the Purity ([3]; 25° C./60% RH, 1 week) was 99.74. For the same compound, the Purity ([3]; 25° C./60% RH, 3 weeks) was 99.74, the Crystal form change ([3]; 40° C./75% RH, 1 month) was “No” and the Purity ([3]; 40° C./75% RH, 1 month) was 99.63. The Crystal form change ([3]; 40° C./75% RH, 1 week) was “No”, the Purity ([3]; 40° C./75% RH, 1 week) was 99.65 and the Purity ([3]; 40° C./75% RH, 3 weeks) was 99.57. It also gave a Purity ([3]; initial value) of 99.86, a Moisture sorption [4] of 0.19% and a Content ([5]; month 0) of 100.5%. For the same compound, the Crystal form ([5]; month 0) was “form B”, the Moisture ([5]; month 0) was 0.2% and the Purity ([5]; month 0) was 99.93%. For the same compound, the Content ([5]; month 3) was 100.5%, the Crystal form ([5]; month 3) was “form B” and the Moisture ([5]; month 3) was 0.3%. For the same compound, the Purity ([5]; month 3) was 99.87%, the Content ([5]; month 6) was 100.0% and the Crystal form ([5]; month 6) was “form B”. The Moisture ([5]; month 6) was 0.3%, the Purity ([5]; month 6) was 99.89% and the Content ([5]; month 9) was 101.6%. For the same compound, the Crystal form ([5]; month 9) was “form B”, the Moisture ([5]; month 9) was 0.2% and the Purity ([5]; month 9) was 99.89%. For the same compound, the Content ([5]; month 12) was 101.0%, the Crystal form ([5]; month 12) was “form B” and the Moisture ([5]; month 12) was 0.2%. The Purity ([5]; month 12) was 99.89%, the Content ([6]; month 0) was 100.5% and the Crystal form ([6]; month 0) was “form B”. It also gave a Moisture ([6]; month 0) of 0.2%, a Purity ([6]; month 0) of 99.93% and a Content ([6]; month 3) of 100.6%. The Crystal form ([6]; month 3) was “form B”, the Moisture ([6]; month 3) was 0.3% and the Purity ([6]; month 3) was 99.87%. For the same compound, the Content ([6]; month 6) was 100.7%, the Crystal form ([6]; month 6) was “form B” and the Moisture ([6]; month 6) was 0.2%. The Purity ([6]; month 6) was 99.90%, the Content ([6]; month 9) was 101.6% and the Crystal form ([6]; month 9) was “form B”. For the same compound, the Moisture ([6]; month 9) was 0.1%, the Purity ([6]; month 9) was 99.89% and the Content ([6]; month 12) was 99.5%. The Crystal form ([6]; month 12) was “form B”, the Moisture ([6]; month 12) was 0.2% and the Purity ([6]; month 12) was 99.88%. The Content ([7]; month 0) was 100.5%, the Crystal form ([7]; month 0) was “form B” and the Moisture ([7]; month 0) was 0.2%. For the same compound, the Purity ([7]; month 0) was 99.93%, the Content ([7]; month 3) was 100.6% and the Crystal form ([7]; month 3) was “form B”. The Moisture ([7]; month 3) was 0.3%, the Purity ([7]; month 3) was 99.87% and the Content ([7]; month 6) was 101.6%. For the same compound, the Crystal form ([7]; month 6) was “form B”, the Moisture ([7]; month 6) was 0.2% and the Purity ([7]; month 6) was 99.90%. For the same compound, the Content ([7]; month 9) was 100.7%, the Crystal form ([7]; month 9) was “form B” and the Moisture ([7]; month 9) was 0.1%. For the same compound, the Purity ([7]; month 9) was 99.90%, the Content ([7]; month 12) was 99.2% and the Crystal form ([7]; month 12) was “form B”. For the same compound, the Moisture ([7]; month 12) was 0.2%, the Purity ([7]; month 12) was 99.89% and the “Crystal form change in variable-temperature XRPD” value ([8]; purged with nitrogen for 20 minutes, heated to 120° C., or cooled to 30° C.) was “did not change”.
With `Cn1c(=O)oc2ccc(-c3ccc(C[C@@H](C#N)NC(=O)[C@@H]4CNCCCO4)c(F)c3)cc21` [Crystal form C] the Crystal form change ([3]; 25° C./60% RH, 1 week) was “No”, the Purity ([3]; 25° C./60% RH, 1 week) was 99.70 and the Crystal form change ([3]; 40° C./75% RH, 1 week) was “No”. The Purity ([3]; 40° C./75% RH, 1 week) was 99.71, the Purity ([3]; initial value) was 99.87 and the Moisture sorption [4] was 0.97%. For the same compound, the “Crystal form change upon heating (XRPD)” value ([8]; heated to 120° C. and cooled to room temperature) was “transformed into the crystal form B”.
With `Cn1c(=O)oc2ccc(-c3ccc(C[C@@H](C#N)NC(=O)[C@@H]4CNCCCO4)cc3)cc21` [INS1007, reference compound] the F [1] was 88.1%.
